Where a SMILES comes first, the peptide text is derived from it. [ ]: non-standard residue; d: D form. pGlu = O=C1CC[C@@H](C(=O)O)N1
Tested on: ovulation in female rats
Test: Anti-ovulatory test in proestrous female rats
Format: in vivo, Sprague-Dawley rats
Method: In vivo tests were conducted with female rats (225 to 250 grams body weight). […] The test was conducted with mature Sprague-Dawley rats, unanesthetized, proestrous rats. On the afternoon of proestrous, each rat in the test group received six subcutaneous injections of the acetate salt of formula I in corn oil, each injection being given a half hour following the previous injection. The rats are sacrificed the next morning and the number of animals ovulating and the number of ova shed are recorded following the procedure described by E. S. France, Neuroendocrinology 6, pp 77-89 (1970). The absence of or a significant decrease in the number of ova is the criterion for an anti-ovulation effect.

With CC(C)C[C@H](NC(=O)[C@@H](CCCCN)NC(=O)[C@H](Cc1ccc(O)cc1)NC(=O)[C@H](CO)NC(=O)[C@H](Cc1c[nH]c2ccccc12)NC(=O)[C@@H]1CCC(=O)N1)C(=O)N[C@@H](CCCNC(=N)N)C(=O)N1CCC[C@H]1C(=O)NCC(N)=O [Example 3, L-Pyroglutamyl-L-tryptophyl-L-seryl-L-tyrosyl-D-lysyl-L-leucyl-L-arginyl-L- prolyl-glycinamide] ([pGlu]WSY[dK]LRPG-NH2) the Inhibition of ovulation (1 mg per injection, six subcutaneous injections in corn oil, half an hour apart, on the afternoon of proestrous, rats sacrificed next morning) was “complete inhibition of ovulation” and the Ovulation inhibition (mature unanesthetized proestrous female Sprague-Dawley rats (225 to 250 g), dose of about 24 mg/kg, subcutaneous in corn oil) was “all of the rats tested”.
